Test results: patent US20090297492A1, “Method for Improving Cognitive Performance” (YAMAHA HATSUDOKI KABUSHIKI KAISHA, priority 2008, published 2009)

Columns and labels:
[1] = test system: healthy males aged 50 to 69; test: CogHealth cognitive function test (task-switching) with administration of astaxanthin; format: in vivo, human; details: for Simple reaction, average reaction time: 10 subjects
Excerpt: CogHealth, mentioned above, is based on task-switching that is used for evaluating higher brain functions (executive functions), such as the suppression of an action or the reorganization of information processing (A. F. Kramer et al., Nature, Vol. 400, pp. 418-419 (1999), N. J. Cepeda et al, Developmental Psychology, Vol. 37, No. 5, pp. 715-730 (2001), and S. Hsieh and L. C. Liu, Brain Res. Cogn. Brain Res., Vol. 22, No. 2, pp. 165-175 (2005)). Furthermore, fMRI analysis of brain proves that frontal lobe activity and task-switching relate to each other, and thus CogHealth is accepted as a frontal lobe function test. […] In CogHealth measurement, analysis is performed by calculating an average RT (reaction time) for each task.
“Simple reaction” refers to a task of pressing a button when a card is flipped from face-down to face-up. “Choice reaction” refers to a task of pressing a button based on the judgment of whether the card flipped from face-down to face-up is red or black. In other words, the simple reaction and the choice reaction are tasks relating to reaction time and suppression time in the function of the human frontal lobe. The simple reaction time is the time taken to perform one reaction to one sensory stimulus, and the choice reaction time is the time necessary to recognize a type of a given stimulus, and to make a reaction depending on the type in a predetermined manner.
“Working memory” refers to a task of pressing a button based on the judgment of whether or not a flipped card is the same as the preceding card. “Delayed recall” refers to a task of pressing a button based on the judgment of whether or not a flipped card is the same as a card that was present in the delayed recall task. “Working memory” and “delayed recall” are tasks for measuring memory, such as immediate memory and episodic memory. Working memory is a concept that includes not only information storage for a short period but also cognitive information processing. Working memory is memory used for a very short period of time in units of seconds, but the delayed recall is memory used for a period of time slightly longer than that of the working memory.
“Divided attention” refers to a task of pressing a button when at least one of five cards moving up and down is brought into contact with an upper or lower set line, and is a task for measuring spatially divided attention ability. In other words, such divided attention is an ability not to concentrate on one point but to allocate attention to the surroundings (spatially divided attention ability or spatially allocated attention ability). The meaning of divided attention is entirely different from attention scattering.
The astaxanthin-containing soft capsules (each capsule contains 3 mg of astaxanthin) were administered to the test subjects by ingestion of two capsules with water twice a day after eating breakfast and supper. The administration period was 12 weeks.
In this example, in order to evaluate cognitive function, measurement using CogHealth (based on task-switching) and P300 (one of the event-related potentials of an electroencephalogram) was performed at 6 weeks and 12 weeks after starting administration.
The average RT (reaction time) was calculated for each of the tasks “simple reaction”, “choice reaction”, “working memory”, “delayed recall”, and “divided attention”. For two memory tasks (“working memory” and “delayed recall”), analysis was performed by also calculating the average AR (correct answer ratio).
For each index, a multiple comparison (Dunnet) was performed to obtain the P value. Regarding the result of P300, a Student's t-test was used additionally as a comparison before and after ingestion.

[2] = test system: healthy males aged 50 to 69; test: P300 event-related potential of electroencephalogram, auditory oddball paradigm; format: in vivo, human
Excerpt: On the other hand, event-related potential, which is a type of electroencephalogram, is a method for measuring cognitive functions by measuring the activity of the cerebral nerves during cognitive work. In particular, the P300 (P3b) component of event-related potential has been used to estimate the mental work load (A. F. Kramer and T. Weber, Handbook of psychophysiology (2nd Edition), J. T. Cacioppo et al. (Eds.), New York, Cambridge University Press, (2000) pp. 794-814). In a state where two tasks are simultaneously executed, when one task is made difficult (or the priority of one task is increased), the execution performance of the other task is lowered. Based on a study using such a dual-task method, the P300 amplitude is considered to clearly reflect the cognitive functions in the perception-central nerve level that caused the amplitude (E. Donchin et al., Psychophysiology: Systems, processes, and applications, M. G. H. Coles et al. (Eds.), New York, Guilford Press, (1986) pp. 702-718). That is to say, the P300 amplitude reflects the degree of attention, the degree of concentration, and the degree of cognitive load, for a task of recognizing surroundings.
In a P300 test, for example, an auditory oddball paradigm can be employed. […] Then, a change in the obtained amplitude before and after ingestion is measured based on the Grand Average. […]
In the electroencephalogram, an auditory oddball paradigm was used in which two types of sounds consisting of a high-pitched sound having a frequency of 2 KHz and a low-pitched sound having a frequency of 1 KHz were emitted from a headphone, and the test subjects were instructed to press a button as quickly and accurately as possible at the moment when the test subjects heard the high-pitched sound. […] The evoked electroencephalograms were measured with the frontal polar (Fpz) electrode as ground, and two linked electrode attached to the left and right earlobes as reference. […]

[3] = After 6 weeks, two 3 mg capsules twice a day, oral, Mean ± SD
[4] = After 12 weeks, two 3 mg capsules twice a day, oral, Mean ± SD

For CC1=C(/C=C/C(C)=C/C=C/C(C)=C/C=C/C=C(C)/C=C/C=C(C)/C=C/C2=C(C)C(=O)[C@@H](O)CC2(C)C)C(C)(C)C[C@H](O)C1=O [astaxanthin], the “Choice reaction, average reaction time” value [1, 3] was 480.63 ± 39.87 ms, the “Delayed recall (Correct answer rate: %)” value [1, 3] was 71.19 ± 5.98% and the “Delayed recall, average reaction time” value [1, 3] was 975.40 ± 190.75 ms. The “Divided attention, average reaction time” value [1, 3] was 419.52 ± 59.32 ms, the “Working memory, average reaction time” value [1, 3] was 732.95 ± 174.83 ms and the “Simple reaction, average reaction time” value [1, 3] was 303.31 ± 33.80 ms. The “Choice reaction, average reaction time” value [1, 4] was 463.63 ± 26.49 ms, the “Delayed recall (Correct answer rate: %)” value [1, 4] was 70.71 ± 8.91% and the “Delayed recall, average reaction time” value [1, 4] was 916.77 ± 151.04 ms. The “Divided attention, average reaction time” value [1, 4] was 412.07 ± 51.97 ms, the “Working memory (Correct answer rate: %)” value [1, 4] was 96.30 ± 3.94% and the “Working memory, average reaction time” value [1, 4] was 654.83 ± 128.42 ms. The “Simple reaction, average reaction time” value [1, 4] was 281.76 ± 33.56 ms, the “Change in reaction time for divided attention” value ([1]; before ingestion versus 6 weeks after ingestion, P=0.034) was “significant reduction” and the “Change in reaction time, all tasks” value ([1]; before ingestion versus 12 weeks after ingestion, P=0.013 to 0.034) was “significantly reduced”. For the same compound, the “Effect on agility, judging ability and spatially allocated attention ability” value ([1]; overall conclusion from CogHealth) was “an effect of improving agility”, the “Change in reaction time, all tasks of CogHealth” value ([1]; versus before ingestion) was “a reduction in reaction time was confirmed” and the “Change in correct answer ratio, working memory” value ([1]; versus before ingestion, P=0.045) was “significant increase”. The “Change in correct answer ratio, delayed recall” value ([1]; versus before ingestion, P=0.991) was “no significant change”, the “P300 Amplitude” value ([2]; After 12 weeks, at Fz, two 3 mg capsules twice a day, oral, Mean ± SD) was −10.54 ± 3.39 μV and the “Change in P300 amplitude at Fz” value ([2]; multiple comparisons, before/after comparison P=0.057) was “no significant change”. The “Effect on concentration on the recognition of surroundings” value ([2]; overall conclusion from P300) was “an effect of improving concentration on the recognition of surroundings”.
